{
  "source": "ChEMBL document CHEMBL1131686",
  "about": "“Synthesis and biological activities of topoisomerase I inhibitors, 6-N-amino analogues of NB-506” (Bioorg Med Chem Lett, 1999)",
  "key": {"[1]": {"target": "Epidermal growth factor receptor (Homo sapiens, UniProt P00533)", "sequence (P00533 whole entry)": "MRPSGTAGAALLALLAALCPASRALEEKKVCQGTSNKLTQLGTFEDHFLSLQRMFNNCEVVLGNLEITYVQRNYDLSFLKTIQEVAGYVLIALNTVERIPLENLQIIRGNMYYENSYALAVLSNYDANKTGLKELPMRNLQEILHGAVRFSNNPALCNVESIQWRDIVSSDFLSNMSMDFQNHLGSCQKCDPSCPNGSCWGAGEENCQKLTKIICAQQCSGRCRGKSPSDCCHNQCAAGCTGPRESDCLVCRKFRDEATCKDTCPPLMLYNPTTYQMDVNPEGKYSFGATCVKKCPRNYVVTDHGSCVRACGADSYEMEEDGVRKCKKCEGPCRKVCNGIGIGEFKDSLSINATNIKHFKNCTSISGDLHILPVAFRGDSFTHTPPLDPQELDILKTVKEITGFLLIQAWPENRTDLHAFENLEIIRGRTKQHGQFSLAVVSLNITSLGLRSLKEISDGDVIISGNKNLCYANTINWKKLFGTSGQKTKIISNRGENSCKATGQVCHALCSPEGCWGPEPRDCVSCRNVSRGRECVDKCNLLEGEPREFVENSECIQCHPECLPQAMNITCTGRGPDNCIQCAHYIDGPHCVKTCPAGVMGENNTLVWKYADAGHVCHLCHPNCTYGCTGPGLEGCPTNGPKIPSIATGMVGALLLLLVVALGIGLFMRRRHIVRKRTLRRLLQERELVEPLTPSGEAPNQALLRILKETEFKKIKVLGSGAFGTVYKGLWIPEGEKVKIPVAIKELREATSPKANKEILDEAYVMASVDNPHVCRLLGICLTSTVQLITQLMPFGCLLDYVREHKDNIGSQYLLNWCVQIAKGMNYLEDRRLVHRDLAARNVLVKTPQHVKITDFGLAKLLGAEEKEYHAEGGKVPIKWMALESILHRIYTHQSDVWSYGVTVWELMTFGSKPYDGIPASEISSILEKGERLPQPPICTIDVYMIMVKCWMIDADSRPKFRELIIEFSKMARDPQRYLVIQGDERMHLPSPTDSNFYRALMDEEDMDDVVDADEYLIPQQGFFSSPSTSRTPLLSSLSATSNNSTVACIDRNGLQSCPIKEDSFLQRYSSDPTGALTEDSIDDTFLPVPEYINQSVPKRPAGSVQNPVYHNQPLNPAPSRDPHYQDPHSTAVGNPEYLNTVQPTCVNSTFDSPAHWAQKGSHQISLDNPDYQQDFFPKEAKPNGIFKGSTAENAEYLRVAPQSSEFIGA", "test": "In vitro activity against Epidermal growth factor receptor (using poly(Glu4Tyr1) as a substrate)"}, "MKN-45 [2]": {"tested_on": "MKN-45", "test": "Cytotoxicity against human stomach cancer cells (MKN-45) after intravenous administration (5 times/week for 2 weeks after tumor grew to 0.2 cme3 or larger)", "format": "functional, cell-based", "details": "MKN-45, 336 h"}, "MKN-45 [3]": {"tested_on": "MKN-45", "test": "In vitro cytotoxicity (CTX) against human stomach cancer cells (MKN-45) using sulforhodamine B dye-staining method", "format": "functional, cell-based"}, "Mus musculus": {"tested_on": "Mus musculus", "test": "Cytotoxicity against human stomach cancer cells (MKN-45) implanted subcutaneously into a side flank of nude mice", "format": "functional, Cancer cell lines"}, "P388 [4]": {"tested_on": "P388", "test": "Effect on the formation of protein-DNA complex in P388 cells K+/SDS method", "format": "functional, Mus musculus"}, "P388 [5]": {"tested_on": "P388", "test": "In vitro cytotoxicity (CTX) against murine leukemia cells (P388) using colorimetric tetrazolium-formazan method", "format": "functional, cell-based", "details": "Mus musculus"}, "[6]": {"target": "Protein kinase C alpha type (Homo sapiens, UniProt P17252)", "test": "In vitro activity evaluated against protein kinase C (using histone II-As as a substrate)"}, "[7]": {"test": "Lethal dose after intravenous administration (5 times/week for 2 weeks after tumor grew to 0.2 cme3 or larger) in mice", "format": "toxicity", "details": "mouse, in vivo, 336 h"}, "DNA topoisomerase 1": {"target": "T1, DNA topoisomerase 1 (Homo sapiens, UniProt P11387)", "T1 sequence (P11387 whole entry)": "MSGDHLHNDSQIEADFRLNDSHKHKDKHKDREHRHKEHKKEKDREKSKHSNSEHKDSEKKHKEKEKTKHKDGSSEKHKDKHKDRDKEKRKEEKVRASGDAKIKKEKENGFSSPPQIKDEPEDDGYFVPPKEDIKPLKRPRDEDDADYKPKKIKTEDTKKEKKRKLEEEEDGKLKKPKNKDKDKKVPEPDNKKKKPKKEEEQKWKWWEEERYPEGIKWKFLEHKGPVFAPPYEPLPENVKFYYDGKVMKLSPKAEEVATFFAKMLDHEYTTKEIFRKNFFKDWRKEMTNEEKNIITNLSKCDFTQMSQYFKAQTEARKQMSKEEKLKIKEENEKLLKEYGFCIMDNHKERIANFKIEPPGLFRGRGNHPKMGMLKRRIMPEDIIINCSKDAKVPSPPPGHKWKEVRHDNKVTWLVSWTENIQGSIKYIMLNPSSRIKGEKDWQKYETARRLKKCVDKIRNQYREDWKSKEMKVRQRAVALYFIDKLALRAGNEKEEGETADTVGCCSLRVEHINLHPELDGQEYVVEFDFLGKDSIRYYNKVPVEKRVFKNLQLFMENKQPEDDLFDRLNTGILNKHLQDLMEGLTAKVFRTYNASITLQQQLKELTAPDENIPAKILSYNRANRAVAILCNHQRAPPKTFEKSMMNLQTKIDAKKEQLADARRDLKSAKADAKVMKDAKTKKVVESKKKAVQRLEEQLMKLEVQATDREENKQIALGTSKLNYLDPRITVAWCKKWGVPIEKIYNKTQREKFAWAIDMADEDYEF", "test": "In vitro activity against topoisomerase-1 mediated cleavage of supercoiled pBR322 plasmid DNA", "format": "functional"}, "DNA topoisomerase II": {"target": "DNA topoisomerase II (Homo sapiens, UniProt P11388+Q02880)", "test": "In vitro activity against topoisomerase-2 mediated cleavage of supercoiled pBR322 plasmid DNA", "format": "functional"}, "[8]": {"test": "Ratio of LD10 to that of GID75 was determined; expressed as safety margin", "format": "functional"}},
  "data": [
    {"smiles": "O=CNN1C(=O)c2c(c3c4cccc(O)c4n(C4OC(CO)C(O)C(O)C4O)c3c3[nH]c4c(O)cccc4c23)C1=O", "note": "(stereo unspecified)", "values": [
      {"measurement": "IC50", "setting": "[1]", "result": "> 200000", "unit": "nM"},
      {"measurement": "IC50", "setting": "MKN-45 [2]", "result": 310, "unit": "nM"},
      {"measurement": "IC50", "setting": "MKN-45 [3]", "result": 310, "unit": "nM"},
      {"measurement": "GID75", "setting": "Mus musculus", "result": 1152, "unit": "mg/me2"},
      {"measurement": "EC200", "setting": "P388 [4]", "result": 1.4, "unit": "µM"},
      {"measurement": "IC50", "setting": "P388 [5]", "result": 75, "unit": "nM"},
      {"measurement": "IC50", "setting": "[6]", "result": "> 200000", "unit": "nM"},
      {"measurement": "LD10", "setting": "[7]", "result": 1600, "unit": "mg/me2"},
      {"measurement": "EC50", "setting": "DNA topoisomerase 1", "result": 700, "unit": "nM"},
      {"measurement": "EC50", "setting": "DNA topoisomerase II", "result": "> 50000", "unit": "nM"},
      {"measurement": "Activity", "setting": "[8]", "result": 1.4, "unit": "Ratio"}
    ]}
  ]
}
